Measured values reported in patent US4510136A (priority 1983, dated 1985).

Columns and labels:
Format in all cases: in vivo
[1] = system: Rhizoctonia solani; assay: Rice sheath blight control on sprayed rice seedlings (Example 87); conditions: Rhizoctonia solani, 168 h, 100 ppm spray, day before inoculation
Protocol: The compounds of the previous examples were again dissolved in acetone in an amount equal to 6% of the final volume and then suspended at a concentration of 100 ppm in purified water containing 250 ppm of the surfactant TREM 014 (polyhydric alcohol esters). This suspension was sprayed to the point of run-off on rice seedlings. The following day, the plants were inoculated with a mixture of bran and the mycelium of Rhizoctonia solani, causal agent of sheath blight of rice, and incubated in a growth room for 7 days. Disease ratings were then made. Treated plants from successful treatments had little sheath blight in contrast to untreated plants which were covered with sheath blight.

[2] = system: Puccinia recondita var. tritici; assay: Wheat leaf rust control on sprayed wheat seedlings (Example 79); conditions: Puccinia recondita, 168 h; 100 ppm spray, day before inoculation
Protocol: The compounds of this invention were dissolved in acetone in an amount equal to 6% of the final volume and then suspended at a concentration of 100 ppm in purified water containing 250 ppm of the surfactant TREM 014 (polyhydric alcohol esters). These suspensions were sprayed to the point of run-off on wheat seedlings. The following day, the plants were inoculated with a spore suspension of Puccinia recondita var. tritici, causal agent of wheat leaf rust, and incubated in a saturated humidity chamber at 20° for 24 hours and then in a growth room for an additional 7 days, when disease ratings were made. Treated plants from successful treatments had few or no rust pustules while the untreated plants had numerous rust pustules on each leaf.

[3] = system: cucumber seedlings; assay: Phytotoxicity on cucumber seedlings (Example 80); parameters: key: G = growth reduction; H = hormonal effects; conditions: 100 ppm spray
Protocol: (§1) The compounds of the previous example were again dissolved in acetone in an amount equal to 6% of the final volume and then suspended at a concentration of 100 ppm in purified water containing 250 ppm of the surfactant TREM 014 (polyhydric alcohol esters). These suspensions were sprayed to the point of run-off, on cucumber seedlings. The following day, the plants were inoculated with a spore suspension of the fungus Erysiphe cichoracearum, causal agent of cucumber powdery mildew, and incubated in a growth room for 7 days. Disease ratings were then made. Treated plants from successful treatments had little or no powdery mildew in contrast to untreated plants which were covered with powdery mildew. Phytotoxicity in the form of growth reduction or hormonal effects was observed on some of the plants in association with disease control.

[4] = system: Venturia inaequalis; assay: Apple scab control on sprayed apple seedlings (Example 82); conditions: Venturia inaequalis, 100 ppm spray, day before inoculation
Protocol: These suspensions were sprayed to the point of run-off on apple seedlings. The following day, the plants were inoculated with a spore suspension of the fungus Venturia inaequalis, causal agent of apple scab, and incubated in a saturated humidity chamber at 20° for 24 hours and then in a growth room for an additional 10-12 days. Treated plants from successful treatments had fewer apple scab lesions when compared to untreated plants which were covered with scab lesions. Phytotoxicity expressed as growth reduction was observed on some of the plants in association with disease control.

[5] = system: Erysiphe cichoracearum; assay: Cucumber powdery mildew control on sprayed cucumber seedlings (Example 80); conditions: Golovinomyces cichoracearum, 168 h, 100 ppm spray, day before inoculation
Protocol: as §1, with “These” for “The compounds of the previous example were again dissolved in acetone in an amount equal to 6% of the final volume and then suspended at a concentration of 100 ppm in purified water containing 250 ppm of the surfactant TREM 014 (polyhydric alcohol esters). These”

[6] = system: Phytophthora infestans; assay: whole plant or invertebrate; conditions: Phytophthora infestans, in Solanum lycopersicum, 168 h, read-out: % Control of Tomato Late Blight, 100 ppm spray, day before inoculation
[7] = system: Helminthosporium maydis; assay: Southern corn leaf blight control on sprayed corn seedlings (Example 83); conditions: Bipolaris maydis, 192 h, 100 ppm spray, day before inoculation
Protocol: The compounds of the previous examples were again dissolved in acetone in an amount equal to 6% of the final volume and then suspended at a concentration of 100 ppm in purified water containing 250 ppm of the surfactant TREM 014 (polyhydric alcohol esters). These suspensions were sprayed to the point of run-off on corn seedlings. The following day, the plants were inoculated with a spore suspension of Helminthosporium maydis, causal agent of southern corn leaf blight, and incubated in a saturated humidity chamber at 20° for 24 hours and then in a growth room for an additional 7 days, when disease ratings were made. Treated plants from successful treatments had few or no lesions while the untreated plants had numerous lesions on each leaf. Phytotoxicity expressed as growth reduction was observed on some of the plants in association with disease control.

[8] = system: Cercospora arachidicola; assay: Peanut early leafspot control on sprayed peanut seedlings (Example 84); conditions: Mycosphaerella arachidis, 360 h, 100 ppm spray, day before inoculation; read-out: % Control Peanut Easly Leafspot
Protocol: These suspensions were sprayed to the point of run-off on peanut seedlings. The following day, the plants were inoculated with a spore suspension of Cercospora arachidicola, causal agent of peanut early leafspot, and incubated in a saturated humidity chamber at 27° for 24 hours and then in a growth room for an additional 14 days, when disease ratings were made. Treated plants from successful treatments had few or no leafspots while the untreated plants had numerous leafspots.

[9] = system: Pyricularia oryzae; assay: whole plant or invertebrate; conditions: Pyricularia oryzae, 168 h, read-out: % Control of Rice Blast, 100 ppm spray, day before inoculation

Row | SMILES | pest or weed control at 100 ppm [1] [%] | pest or weed control at 100 ppm [2] [%] | Phytotoxicity on cucumber [3] | pest or weed control at 100 ppm [4] [%] | pest or weed control at 100 ppm [5] [%] | pest or weed control at 100 ppm [6] [%] | pest or weed control at 100 ppm [7] [%] | pest or weed control at 100 ppm [8] [%] | pest or weed control at 100 ppm [9] [%]
1 | C[Si](C)(Cn1cncn1)C1CCCCC1 [Cyclohexyl(dimethyl)(1H-1,2,4-triazol-1-ylmethyl)silane] | 0 | 0 | G | 0 | 100 | 0 | 50 | 0 | –
2 | COc1cccc([Si](C)(C)Cn2cncn2)c1OC [(2,3-Dimethoxyphenyl)dimethyl(1H-1,2,4-triazol-1-ylmethyl)silane] | 0 | 0 | G | 0 | 100 | 0 | 0 | 0 | 0
3 | O[Si](Cn1cncn1)(c1ccc(Cl)cc1)c1ccc(Cl)cc1 [bis(4-Chlorophenyl)hydroxy(1H-1,2,4-triazol-1-ylmethyl)silane] | 0 | 90 | H | 100 | 100 | 0 | 90 | 100 | 0
4 | COc1cccc(OC)c1[Si](C)(C)Cn1cncn1 [(2,6-Dimethoxyphenyl)dimethyl(1H-1,2,4-triazol-1-ylmethyl)silane] | 0 | 0 | G | 0 | 100 | 0 | 0 | 0 | 0
5 | C[Si](C)(Cn1cncn1)c1ccccc1Cl [(2-Chlorophenyl)dimethyl(1H-1,2,4-triazol-1-ylmethyl)silane] | 0 | 0 | G | – | – | 0 | – | – | 100
6 | C[Si](C)(Cn1cncn1)c1ccc(OC(F)(F)F)cc1 [Dimethyl(4-trifluoromethoxyphenyl)(1H-1,2,4-triazol-1-ylmethyl)silane] | 0 | 100 | G | 90 | 100 | 0 | 80 | 50 | 0
7 | C[Si](Cn1cncn1)(c1ccc(Cl)cc1Cl)c1ccc(Cl)cc1Cl [bis(2,4-Dichlorophenyl)(methyl)(1H-1,2,4-triazol-1-ylmethyl)silane] | 0 | 100 | G | 100 | 100 | 0 | 80 | 100 | 0
8 | C[Si](Cn1cncn1)(c1ccc(Br)cc1)c1ccc(Br)cc1 [[bis(4-Bromophenyl)]methyl(1H-1,2,4-triazol-1-ylmethyl)silane] | 0 | 0 | G | 80 | 80 | 0 | 0 | 100 | 90
9 | Clc1ccc([Si](Cn2cncn2)(c2ccc(Cl)cc2)c2ccc(Cl)cc2)cc1 [tris(4-Chlorophenyl)(1H-1,2,4-triazol-1-ylmethyl)silane] | 0 | 40 | – | 0 | 100 | 0 | 0 | 0 | 0
10 | COc1ccc([Si](C)(Cn2cncn2)c2ccc(OC)cc2)cc1 [[bis(4-Methoxyphenyl)]methyl(1H-1,2,4-triazol-1-ylmethyl)silane] | 80 | 0 | – | 0 | 0 | 0 | 90 | 30 | 0
11 | C[Si](C)(Cn1cncn1)c1ccc(S(C)(=O)=O)cc1 [Dimethyl(4-methylsulfonylphenyl)(1H-1,2,4-triazol-1-ylmethyl)silane] | 0 | 0 | – | 0 | 0 | 0 | 0 | 0 | 70
12 | C[Si](C)(Cn1cncn1)c1cccc(C(F)(F)F)c1 [Dimethyl(1H-1,2,4-triazol-1-ylmethyl)(3-trifluoromethylphenyl)silane] | 0 | 0 | – | 0 | 100 | 0 | 0 | 0 | 0
13 | CC(C)O[Si](C)(Cn1cncn1)c1ccccc1 (stereo not drawn) [Methyl(phenyl)(2-propoxy)(1H-1,2,4-triazol-1-ylmethyl)silane] | 0 | 0 | – | 0 | 100 | 0 | 0 | 0 | 0
14 | C[Si](C)(Cn1cncn1)c1cccc(-c2ccccc2)c1 [(1,1'-Biphenyl-3-yl)dimethyl(1H-1,2,4-triazol-1-ylmethyl)silane] | 0 | 80 | – | 50 | 0 | 0 | 100 | 90 | 0
15 | CCCCCCCCCCCCCCCCCC[Si](C)(C)Cn1cncn1 [Dimethyl(octadecyl)(1H-1,2,4-triazol-1-ylmethyl)silane] | 0 | 0 | – | 60 | 0 | 0 | 0 | 0 | 0
